Experimental findings from patent publication US20260242353A1, “HETEROARYL DERIVATIVES AS DDRs INHIBITORS” (CHIESI FARMACEUTICI S.P.A., priority 2022, published 2026) are described below.

As a reminder, the Ki is a dissociation constant, usually derived from enzyme kinetics or from competition with a known ligand.

For one assay, the target named is T1, DDR2 (Homo sapiens, UniProt Q16832).
T1 construct: purchased Life Technologies
T1 sequence (Q16832 22-855): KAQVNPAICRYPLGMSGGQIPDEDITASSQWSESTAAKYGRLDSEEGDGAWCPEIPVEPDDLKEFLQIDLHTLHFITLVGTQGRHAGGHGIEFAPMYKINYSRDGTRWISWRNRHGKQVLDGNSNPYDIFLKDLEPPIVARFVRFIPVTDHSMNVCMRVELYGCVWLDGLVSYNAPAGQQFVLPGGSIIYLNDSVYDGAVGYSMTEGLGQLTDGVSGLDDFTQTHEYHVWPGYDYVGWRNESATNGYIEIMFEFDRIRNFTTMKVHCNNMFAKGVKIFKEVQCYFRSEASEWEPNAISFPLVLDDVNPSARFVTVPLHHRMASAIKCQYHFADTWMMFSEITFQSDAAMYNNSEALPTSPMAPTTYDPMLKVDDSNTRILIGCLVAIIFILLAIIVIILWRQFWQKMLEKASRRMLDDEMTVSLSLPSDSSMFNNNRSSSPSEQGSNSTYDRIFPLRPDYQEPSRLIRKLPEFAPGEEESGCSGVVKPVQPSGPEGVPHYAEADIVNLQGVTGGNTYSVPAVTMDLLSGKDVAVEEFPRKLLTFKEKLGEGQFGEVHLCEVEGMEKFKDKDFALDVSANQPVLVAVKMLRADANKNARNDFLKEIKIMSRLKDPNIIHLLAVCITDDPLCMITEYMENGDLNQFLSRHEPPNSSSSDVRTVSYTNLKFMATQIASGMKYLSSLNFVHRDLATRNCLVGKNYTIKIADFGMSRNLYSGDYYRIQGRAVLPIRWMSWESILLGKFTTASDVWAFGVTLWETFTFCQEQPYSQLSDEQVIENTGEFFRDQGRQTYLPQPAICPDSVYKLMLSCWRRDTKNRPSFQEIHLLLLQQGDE
The experiment in a line: LanthaScreen Europium Kinase Binding assay, DDR2. Conditions: 5 nM DDR2, 10 nM Kinase Tracer 178, 1 h at rt; Ki from IC50 by Cheng-Prusoff; read-out: Ki DDR2. On the procedure: (§1) DDR1 and DDR2 binding assays were performed using Life Technologies LanthaScreen™ Europium Kinase Binding assay. The compounds were incubated with 5 nM DDR1 (Carna Biosciences) or 5 nM DDR2 (Life Technologies) for 1 h at rt in white 384-well OptiPlate (PerkinElmer), containing 20 nM or 10 nM Kinase Tracer 178 respectively and 2 nM Europium labelled anti-GST antibody (Life Technologies) in assay buffer (50 mM HEPES pH 7.5, 10 mM MgCI2, 1 mM EGTA and 0.01% BRIJ35). The ratio of fluorescence emission 665 nm/615 nm after excitation at 340 nm was obtained using the Tecan Spark 20M plate reader. IC50 values were determined in GraphPad Prism 7.0 software, using 4 parameter model: log(inhibitor) vs. response. IC50 values were converted in Ki using the Cheng-Prusoff equation (Ki=IC50/(1+[Tracer]/Kd).

The target in another assay is T2, DDR1 (Homo sapiens, UniProt Q08345).
T2 construct: purchased Carna Biosciences
T2 sequence (Q08345 19-913): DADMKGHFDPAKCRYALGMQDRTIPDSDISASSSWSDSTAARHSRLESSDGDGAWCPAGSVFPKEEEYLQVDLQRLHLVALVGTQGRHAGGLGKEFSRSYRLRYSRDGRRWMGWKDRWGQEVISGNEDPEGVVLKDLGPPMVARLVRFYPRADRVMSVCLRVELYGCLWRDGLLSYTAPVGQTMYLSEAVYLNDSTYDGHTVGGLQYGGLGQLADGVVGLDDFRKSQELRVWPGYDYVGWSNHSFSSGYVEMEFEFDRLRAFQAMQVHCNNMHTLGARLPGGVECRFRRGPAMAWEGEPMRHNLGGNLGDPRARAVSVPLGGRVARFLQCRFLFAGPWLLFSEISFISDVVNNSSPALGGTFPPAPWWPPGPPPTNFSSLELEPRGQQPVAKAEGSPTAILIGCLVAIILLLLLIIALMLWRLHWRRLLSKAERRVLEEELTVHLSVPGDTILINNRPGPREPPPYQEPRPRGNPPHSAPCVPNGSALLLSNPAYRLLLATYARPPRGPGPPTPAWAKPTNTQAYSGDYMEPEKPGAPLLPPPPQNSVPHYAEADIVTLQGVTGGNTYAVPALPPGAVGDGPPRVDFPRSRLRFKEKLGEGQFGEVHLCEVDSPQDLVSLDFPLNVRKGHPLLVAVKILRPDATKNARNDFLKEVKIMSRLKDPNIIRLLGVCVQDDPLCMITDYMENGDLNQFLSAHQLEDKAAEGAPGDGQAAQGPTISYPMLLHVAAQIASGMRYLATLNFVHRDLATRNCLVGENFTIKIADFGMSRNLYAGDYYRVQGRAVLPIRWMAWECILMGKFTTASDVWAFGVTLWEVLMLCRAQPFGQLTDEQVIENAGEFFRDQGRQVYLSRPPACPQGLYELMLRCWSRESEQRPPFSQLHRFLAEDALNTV
Nature of the assay: LanthaScreen Europium Kinase Binding assay, DDR1. Conditions: 5 nM DDR1, 20 nM Kinase Tracer 178, 1 h at rt; Ki from IC50 by Cheng-Prusoff; read-out: Ki DDR1. Here is the method:
as §1
(TR-FRET usually uses a lanthanide donor and a delayed reading to cut background.)

As to `CNC(=O)c1cncc(N2CC[C@@H](c3cc(C(=O)Nc4cncc(C(F)(F)F)c4)ccc3C)C2)c1` [Example 29, (S)-N-methyl-5-(3-(2-methyl-5-((5-(trifluoromethyl)pyridin-3-yl)carbamoyl)phenyl)pyrrolidin-1-yl)nicotinamide], the Ki on DDR2 and on DDR1 was under 5 nM each time.
Regarding `Cc1ccc(C(=O)Nc2cncc(C(F)(F)F)c2)cc1[C@@H]1CCN(c2ncnc3[nH]ncc23)C1` [Example 129, (S)-3-(1-(1H-pyrazolo[3,4-d]pyrimidin-4-yl)pyrrolidin-3-yl)-4-methyl-N-(5-(trifluoromethyl)pyridin-3-yl)benzamide], the Ki at DDR2 and at DDR1 was under 5 nM throughout.
Regarding `Cc1ccc(C(=O)Nc2cc(C(C)(C)C)no2)cc1[C@@H]1CCN(c2cncc(C(N)=O)c2)C1` [Example 6, (S)-5-(3-(5-((3-(tert-butyl)isoxazol-5-yl)carbamoyl)-2-methylphenyl)pyrrolidin-1-yl)nicotinamide], the Ki on DDR2 and at DDR1 was under 5 nM each time.
Take `Cc1ccc(C(=O)Nc2cc(C(F)F)ccn2)cc1[C@@H]1CCN(c2cncnc2)C1` [Example 67, (S)-N-(4-(difluoromethyl)pyridin-2-yl)-4-methyl-3-(1-(pyrimidin-5-yl)pyrrolidin-3-yl)benzamide]: the Ki at DDR2 and at DDR1 was under 5 nM throughout.
In the case of `COc1ccc(C(=O)Nc2cncc(C(F)(F)F)c2)cc1C1CCN(c2cncnc2)C1` (racemic) [Example 111, 4-methoxy-3-(1-(pyrimidin-5-yl)pyrrolidin-3-yl)-N-(5-(trifluoromethyl)pyridin-3-yl)benzamide], the Ki on DDR2 is 5 to 25 nM; on DDR1 it was under 5 nM.
The corresponding values for `Cc1ccc(C(=O)Nc2cc(C(F)(F)F)nn2C)cc1[C@@H]1CCN(c2cncnc2)C1` [Example 68, (S)-4-methyl-N-(1-methyl-3-(trifluoromethyl)-1H-pyrazol-5-yl)-3-(1-(pyrimidin-5-yl)pyrrolidin-3-yl)benzamide] are 5 to 25 nM and 5 to 25 nM.
The corresponding values for `Cc1ccc(C(=O)Nc2cncc(C(F)(F)F)c2)cc1[C@@H]1CN(c2cncnc2)C[C@H]1O` (racemic) [Example 105, 3-((3S,4R)-3-(4-hydroxy-1-(pyrimidin-5-yl)pyrrolidin-3-yl)-4-methyl-N-(5-(trifluoromethyl)pyridin-3-yl)benzamide and 3-((3R,4S)-4-hydroxy-1-(pyrimidin-5-yl)pyrrolidin-3-yl)-4-methyl-N-(5-(trifluoromethyl)pyridin-3-yl)benzamide] are 5 to 25 nM and under 5 nM.
On to `Cc1ccc(C(=O)Nc2cc(CN(C)C)nc(C(F)(F)F)c2)cc1[C@@H]1CCN(c2ccnc(C(N)=O)c2)C1` [Example 53, (S)-4-(3-(5-((2-((dimethylamino)methyl)-6-(trifluoromethyl)pyridin-4-yl)carbamoyl)-2-methylphenyl)pyrrolidin-1-yl)picolinamide], for which the Ki on DDR2 is 5 to 25 nM; on DDR1 it was under 5 nM.
The corresponding values for `Cc1ccc(C(=O)Nc2cncc(C(F)(F)F)c2)cc1[C@@H]1CCN(c2ncnc3cc(Br)sc23)C1` [Example 125, (S)-3-(1-(6-bromothieno[3,2-d]pyrimidin-4-yl)pyrrolidin-3-yl)-4-methyl-N-(5-(trifluoromethyl)pyridin-3-yl)benzamide] are 5 to 25 nM and 5 to 25 nM.
`Cc1ccc(C(=O)Nc2cc(C(C)(C)C(F)(F)F)on2)cc1[C@H]1CCN(c2cncc(-c3cnn(C)c3)c2)C1` [Example 60, (R)-4-methyl-3-(1-(5-(1-methyl-1H-pyrazol-4-yl)pyridin-3-yl)pyrrolidin-3-yl)-N-(5-(1,1,1-trifluoro-2-methylpropan-2-yl)isoxazol-3-yl)benzamide]: the Ki on DDR2 and on DDR1 was under 5 nM throughout.
In the case of `O=C(Nc1cncc(C(F)(F)F)c1)c1ccc(OC(F)F)c(C2CCN(c3cncnc3)C2)c1` (centres unmarked) [Example 113, 4-(difluoromethoxy)-3-(1-(pyrimidin-5-yl)pyrrolidin-3-yl)-N-(5-(trifluoromethyl)pyridin-3-yl)benzamide], the Ki at DDR2 and at DDR1 was under 5 nM each time.
Take `Cc1ccc(C(=O)Nc2cc(C(C)(C)C)nn2C)cc1[C@@H]1CCN(c2cncnc2)C1` [Example 17, (S)-N-(3-(tert-butyl)-1-methyl-1H-pyrazol-5-yl)-4-methyl-3-(1-(pyrimidin-5-yl)pyrrolidin-3-yl)benzamide]: the Ki on DDR2 is 5 to 25 nM; at DDR1 it was under 5 nM.
The corresponding values for `Cc1ccc(C(=O)Nc2cncc(C(F)(F)F)c2)cc1[C@@H]1CCN(c2cncc(C(=O)NCCN(C)C)c2)C1` [Example 23, (S)-N-(2-(dimethylamino)ethyl)-5-(3-(2-methyl-5-((5-(trifluoromethyl)pyridin-3-yl)carbamoyl)phenyl)pyrrolidin-1-yl)nicotinamide] are 5 to 25 nM and under 5 nM.
In the same order, the values of `Cc1ccc(C(=O)Nc2cc(C(C)(C)C)no2)cc1[C@@H]1CCN(c2cncc(C#N)c2)C1` [Example 7, (S)—N-(3-(tert-butyl)isoxazol-5-yl)-3-(1-(5-cyanopyridin-3-yl)pyrrolidin-3-yl)-4-methylbenzamide] are 5 to 25 nM and under 5 nM.
In the same order, the values of `CC(=O)Nc1cncc(N2CC[C@@H](c3cc(C(=O)Nc4cncc(C(F)(F)F)c4)ccc3C)C2)c1` [Example 28, (S)-3-(1-(5-acetamidopyridin-3-yl)pyrrolidin-3-yl)-4-methyl-N-(5-(trifluoromethyl)pyridin-3-yl)benzamide] are under 5 nM and under 5 nM.
Turning to `Cc1ccc(C(=O)Nc2cncc(C(F)(F)F)c2)cc1[C@@H]1CCN(c2cn[nH]c2)C1` [Example 100, (S)-3-(1-(1H-pyrazol-4-yl)pyrrolidin-3-yl)-4-methyl-N-(5-(trifluoromethyl)pyridin-3-yl)benzamide], the Ki at DDR2 is 5 to 25 nM; on DDR1, under 5 nM.
As to `Cc1ccc(C(=O)Nc2cc(OC(F)(F)F)ccn2)cc1[C@@H]1CCN(c2cncc(C(N)=O)c2)C1` [Example 9, (S)-5-(3-(2-methyl-5-((4-(trifluoromethoxy)pyridin-2-yl)carbamoyl)phenyl)pyrrolidin-1-yl)nicotinamide], the Ki at DDR2 and at DDR1 was under 5 nM in each case.
Turning to `Cc1ccc(C(=O)Nc2cncc(C(F)(F)F)c2)cc1[C@@H]1CCN(c2ncnc3ccsc23)C1` [Example 107, (S)-4-methyl-3-(1-(thieno[3,2-d]pyrimidin-4-yl)pyrrolidin-3-yl)-N-(5-(trifluoromethyl)pyridin-3-yl)benzamide], the Ki at DDR2 and on DDR1 was under 5 nM in each case.
For `Cc1ccc(C(=O)Nc2cc(OC(F)F)ccn2)cc1[C@@H]1CCN(c2cnn3cccnc23)C1` [Example 91, N-[4-(difluoromethoxy)-2-pyridyl]-4-methyl-3-[(3S)-1-pyrazolo[1,5-a]pyrimidin-3-ylpyrrolidin-3-yl]benzamide], the Ki at DDR2 and on DDR1 was under 5 nM throughout.
Take `Cc1ccc(C(=O)Nc2cncc(C(F)(F)F)c2)cc1[C@@H]1CCN(c2nccn3cncc23)C1` [Example 128, (S)-3-(1-(imidazo[1,5-a]pyrazin-8-yl)pyrrolidin-3-yl)-4-methyl-N-(5-(trifluoromethyl)pyridin-3-yl)benzamide]: the Ki at DDR2 is 5 to 25 nM; at DDR1, under 5 nM.
The corresponding values for `Cc1ccc(C(=O)Nc2cncc(C(F)(F)F)c2)cc1[C@@H]1CCN(c2cnccn2)C1` [Example 33, (S)-4-methyl-3-(1-(pyrazin-2-yl)pyrrolidin-3-yl)-N-(5-(trifluoromethyl)pyridin-3-yl)benzamide] are under 5 nM and under 5 nM.
The corresponding values for `Cc1ccc(C(=O)Nc2cncc(C(F)(F)F)c2)cc1[C@@H]1CCN(c2cncc(C(F)F)c2)C1` [Example 22, (S)-3-(1-(5-(difluoromethyl)pyridin-3-yl)pyrrolidin-3-yl)-4-methyl-N-(5-(trifluoromethyl)pyridin-3-yl)benzamide] are 5 to 25 nM and under 5 nM.
